# Experimental data: ChEMBL document CHEMBL2440076, “New triarylpyrazoles as broad-spectrum anticancer agents: design, synthesis, and biological evaluation” (Eur J Med Chem, 2013)
# How the values were obtained:
# T47D = test: Growth inhibition of human T47D cells assessed as cell growth at 10 uM after 48 hrs by sulforhodamine B assay; assay type: functional; conditions: read-out: Activity
# MCF7 = test: Growth inhibition of human MCF7 cells assessed as cell growth at 10 uM after 48 hrs by sulforhodamine B assay; assay type: functional; conditions: MCF7, 48 h, read-out: Activity
# MDA-MB-231 = test: Growth inhibition of human MDA-MB-231 cells assessed as cell growth at 10 uM after 48 hrs by sulforhodamine B assay; assay type: functional; conditions: MDA-MB-231, 48 h, read-out: Activity
# DU-145 = test: Growth inhibition of human DU145 cells assessed as cell growth at 10 uM after 48 hrs by sulforhodamine B assay; assay type: functional; conditions: DU-145, 48 h, read-out: Activity
# CAKI-1 = test: Growth inhibition of human CAKI-1 cells assessed as cell growth at 10 uM after 48 hrs by sulforhodamine B assay; assay type: functional; conditions: CAKI-1, 48 h, read-out: Activity
# SW-620 = test: Growth inhibition of human SW620 cells after 48 hrs by sulforhodamine B assay; assay type: functional; conditions: SW-620, 48 h; for CC50: read-out: LC50 (the source's name)
# KM12 = test: Growth inhibition of human KM12 cells after 48 hrs by sulforhodamine B assay; assay type: functional, cell-based; conditions: KM12, 48 h; for CC50: read-out: LC50 (the source's name)
# [1] = Growth inhibition of human HCC2998 cells after 48 hrs by sulforhodamine B assay; assay type: functional; conditions: HCC 2998, 48 h; for CC50: read-out: LC50 (the source's name)
# NCI-H226 [2] = test: Growth inhibition of human NCI-H226 cells after 48 hrs by sulforhodamine B assay; assay type: functional; conditions: NCI-H226, 48 h; for CC50: read-out: LC50 (the source's name)
# SR = test: Growth inhibition of human SR cells after 48 hrs by sulforhodamine B assay; assay type: functional; conditions: for CC50: read-out: LC50 (the source's name)
# RPMI-8226 = test: Growth inhibition of human RPMI8226 cells after 48 hrs by sulforhodamine B assay; assay type: functional, cell-based; conditions: RPMI-8226, 48 h; for CC50: read-out: LC50 (the source's name)
# CCRF-CEM [3] = test: Growth inhibition of human CCRF-CEM cells after 48 hrs by sulforhodamine B assay; assay type: functional
# ACHN = test: Growth inhibition of human ACHN cells assessed as cell growth at 10 uM after 48 hrs by sulforhodamine B assay; assay type: functional; conditions: read-out: Activity
# A498 [4] = test: Growth inhibition of human A498 cells assessed as cell growth at 10 uM after 48 hrs by sulforhodamine B assay; assay type: functional; conditions: A498, 48 h, read-out: Activity
# SK-OV-3 = test: Growth inhibition of human SKOV3 cells assessed as cell growth at 10 uM after 48 hrs by sulforhodamine B assay; assay type: functional; conditions: SK-OV-3, 48 h, read-out: Activity
# [5] = Growth inhibition of human NCI-ADR-RES cells assessed as cell growth at 10 uM after 48 hrs by sulforhodamine B assay; assay type: functional; conditions: read-out: Activity
# IGROV-1 = test: Growth inhibition of human IGROV1 cells assessed as cell growth at 10 uM after 48 hrs by sulforhodamine B assay; assay type: functional; conditions: IGROV-1, 48 h, read-out: Activity
# Malme-3M = test: Growth inhibition of human MALME-3M cells assessed as cell growth at 10 uM after 48 hrs by sulforhodamine B assay; assay type: functional; conditions: read-out: Activity
# U-251 = test: Growth inhibition of human U251 cells assessed as cell growth at 10 uM after 48 hrs by sulforhodamine B assay; assay type: functional; conditions: U-251, 48 h, read-out: Activity
# HCT-116 = test: Growth inhibition of human HCT116 cells assessed as cell growth at 10 uM after 48 hrs by sulforhodamine B assay; assay type: functional; conditions: HCT-116, 48 h, read-out: Activity
# COLO 205 = test: Growth inhibition of human COLO205 cells assessed as cell growth at 10 uM after 48 hrs by sulforhodamine B assay; assay type: functional; conditions: COLO 205, 48 h, read-out: Activity
# NCI-H226 [6] = test: Growth inhibition of human NCI-H226 cells assessed as cell growth at 10 uM after 48 hrs by sulforhodamine B assay; assay type: functional; conditions: NCI-H226, 48 h, read-out: Activity
# UO-31 = test: Growth inhibition of human UO31 cells after 48 hrs by sulforhodamine B assay; assay type: functional; conditions: UO-31, 48 h; for CC50: read-out: LC50 (the source's name)
# TK-10 = test: Growth inhibition of human TK10 cells after 48 hrs by sulforhodamine B assay; assay type: functional; conditions: TK-10, 48 h; for CC50: read-out: LC50 (the source's name)
# SN12C = test: Growth inhibition of human SN12C cells after 48 hrs by sulforhodamine B assay; assay type: functional; conditions: for CC50: read-out: LC50 (the source's name)
# A498 [7] = test: Growth inhibition of human A498 cells after 48 hrs by sulforhodamine B assay; assay type: functional, cell-based; conditions: A498, 48 h; for CC50: read-out: LC50 (the source's name)
# OVCAR-4 = test: Growth inhibition of human OVCAR4 cells after 48 hrs by sulforhodamine B assay; assay type: functional; conditions: OVCAR-4, 48 h
# UACC-62 = test: Growth inhibition of human UACC62 cells after 48 hrs by sulforhodamine B assay; assay type: functional; conditions: UACC-62, 48 h
# UACC-257 = test: Growth inhibition of human UACC257 cells after 48 hrs by sulforhodamine B assay; assay type: functional; conditions: UACC-257, 48 h; for CC50: read-out: LC50 (the source's name)
# MDA-MB-435 = test: Growth inhibition of human MDA-MB-435 cells after 48 hrs by sulforhodamine B assay; assay type: functional, cell-based; conditions: MDA-MB-435, 48 h; for CC50: read-out: LC50 (the source's name)
# M14 = test: Growth inhibition of human M14 cells after 48 hrs by sulforhodamine B assay; assay type: functional; conditions: M14, 48 h
# SNB-75 = test: Growth inhibition of human SNB75 cells after 48 hrs by sulforhodamine B assay; assay type: functional; conditions: SNB-75, 48 h
# SF-268 = test: Growth inhibition of human SF268 cells after 48 hrs by sulforhodamine B assay; assay type: functional; conditions: SF-268, 48 h; for CC50: read-out: LC50 (the source's name)
# K562 = test: Growth inhibition of human K562 cells assessed as cell growth at 10 uM after 48 hrs by sulforhodamine B assay; assay type: functional; conditions: K562, 48 h, read-out: Activity
# CCRF-CEM [8] = test: Growth inhibition of human CCRF-CEM cells assessed as cell growth at 10 uM after 48 hrs by sulforhodamine B assay; assay type: functional; conditions: read-out: Activity
structure (smiles),measurement,setting,value
O=C(Nc1cccc(-n2cc(-c3ccncc3)c(-c3ccc(Cl)c(O)c3)n2)c1)Nc1cc(C(F)(F)F)cc(C(F)(F)F)c1,growth at 10 µM,T47D,12.1%
same,growth at 10 µM,MCF7,2.71%
same,growth at 10 µM,MDA-MB-231,-88.9%
same,growth at 10 µM,DU-145,-28.2%
same,growth at 10 µM,CAKI-1,8.94%
same,GI50,SW-620,1300 nM
same,TGI,SW-620,5.11 µM
same,CC50,SW-620,23.4 µM
same,GI50,KM12,506 nM
same,IC50,KM12,510 nM
same,TGI,KM12,1.43 µM
same,CC50,KM12,4.06 µM
same,GI50,[1],1030 nM
same,TGI,[1],2.41 µM
same,CC50,[1],7.16 µM
same,GI50,NCI-H226 [2],1240 nM
same,TGI,NCI-H226 [2],6.12 µM
same,CC50,NCI-H226 [2],37.6 µM
same,GI50,SR,922 nM
same,TGI,SR,3.66 µM
same,CC50,SR,> 50 µM
same,GI50,RPMI-8226,477 nM
same,IC50,RPMI-8226,480 nM
same,TGI,RPMI-8226,> 50 µM
same,CC50,RPMI-8226,> 50 µM
same,GI50,CCRF-CEM [3],789 nM
same,LC50,CCRF-CEM [3],> 50 µM
same,TGI,CCRF-CEM [3],6.78 µM
same,growth at 10 µM,ACHN,8.48%
same,growth at 10 µM,A498 [4],-18.6%
same,growth at 10 µM,SK-OV-3,-24.4%
same,growth at 10 µM,[5],4.72%
same,growth at 10 µM,IGROV-1,4.8%
same,growth at 10 µM,Malme-3M,-23%
same,growth at 10 µM,U-251,-83.8%
same,growth at 10 µM,HCT-116,-59.1%
same,growth at 10 µM,COLO 205,-97.3%
same,growth at 10 µM,NCI-H226 [6],1.17%
same,GI50,UO-31,647 nM
same,TGI,UO-31,1.9 µM
same,CC50,UO-31,6.6 µM
same,GI50,TK-10,959 nM
same,TGI,TK-10,3.58 µM
same,CC50,TK-10,14.2 µM
same,GI50,SN12C,1030 nM
same,TGI,SN12C,5.45 µM
same,CC50,SN12C,> 50 µM
same,GI50,A498 [7],792 nM
same,IC50,A498 [7],790 nM
same,TGI,A498 [7],4330 nM
same,CC50,A498 [7],16 µM
same,GI50,OVCAR-4,849 nM
same,LC50 (concentration killing 50% of cells),OVCAR-4,23.9 µM
same,TGI,OVCAR-4,5.01 µM
same,GI50,UACC-62,749 nM
same,LC50 (50% lethal concentration),UACC-62,8.46 µM
same,TGI,UACC-62,2.19 µM
same,GI50,UACC-257,965 nM
same,TGI,UACC-257,2.55 µM
same,CC50,UACC-257,10.6 µM
same,GI50,MDA-MB-435,910 nM
same,IC50,MDA-MB-435,910 nM
same,TGI,MDA-MB-435,2590 nM
same,CC50,MDA-MB-435,15.6 µM
same,GI50,M14,607 nM
same,LC50 (concentration killing 50% of cells),M14,6.06 µM
same,TGI,M14,1.81 µM
same,GI50,SNB-75,877 nM
same,"LC50 (lethal concentration, 50% net cell kill)",SNB-75,7.03 µM
same,TGI,SNB-75,2180 nM
same,GI50,SF-268,846 nM
same,TGI,SF-268,2690 nM
same,CC50,SF-268,20.5 µM
same,growth at 10 µM,K562,-19.6%
same,growth at 10 µM,CCRF-CEM [8],-16%
COc1cc(-c2nn(-c3cccc(NC(=O)c4ccc(N5CCOCC5)c(C(F)(F)F)c4)c3)cc2-c2ccncc2)ccc1Cl,growth at 10 µM,T47D,27.5%
same,growth at 10 µM,MCF7,8.85%
same,growth at 10 µM,MDA-MB-231,-25.2%
same,growth at 10 µM,DU-145,10.9%
same,growth at 10 µM,CAKI-1,39.9%
same,GI50,SW-620,241 nM
same,TGI,SW-620,> 100 µM
same,CC50,SW-620,> 100 µM
same,GI50,KM12,248 nM
same,IC50,KM12,250 nM
same,TGI,KM12,6.6 µM
same,CC50,KM12,> 100 µM
same,GI50,[1],1070 nM
same,TGI,[1],5.02 µM
same,CC50,[1],> 100 µM
same,GI50,NCI-H226 [2],427 nM
same,TGI,NCI-H226 [2],> 100 µM
same,CC50,NCI-H226 [2],> 100 µM
same,GI50,SR,36.9 nM
same,TGI,SR,> 100 µM
same,CC50,SR,> 100 µM
same,GI50,RPMI-8226,339 nM
same,IC50,RPMI-8226,340 nM
same,TGI,RPMI-8226,> 100 µM
same,CC50,RPMI-8226,> 100 µM
same,GI50,CCRF-CEM [3],236 nM
same,LC50,CCRF-CEM [3],> 100 µM
same,TGI,CCRF-CEM [3],> 100 µM
same,growth at 10 µM,ACHN,21.3%
same,growth at 10 µM,A498 [4],-29.7%
same,growth at 10 µM,SK-OV-3,1.88%
same,growth at 10 µM,[5],-7.13%
same,growth at 10 µM,IGROV-1,41.8%
same,growth at 10 µM,Malme-3M,36.2%
same,growth at 10 µM,U-251,2.49%
same,growth at 10 µM,HCT-116,8.35%
same,growth at 10 µM,COLO 205,-43.4%
same,growth at 10 µM,NCI-H226 [6],42.5%
same,GI50,UO-31,289 nM
same,TGI,UO-31,7.53 µM
same,CC50,UO-31,> 100 µM
same,GI50,TK-10,1490 nM
same,TGI,TK-10,45.3 µM
same,CC50,TK-10,> 100 µM
same,GI50,SN12C,1090 nM
same,TGI,SN12C,> 100 µM
same,CC50,SN12C,> 100 µM
same,GI50,A498 [7],227 nM
same,IC50,A498 [7],230 nM
same,TGI,A498 [7],1080 nM
same,CC50,A498 [7],> 100 µM
same,GI50,OVCAR-4,957 nM
same,LC50 (concentration killing 50% of cells),OVCAR-4,> 100 µM
same,TGI,OVCAR-4,> 100 µM
same,GI50,UACC-62,266 nM
same,LC50 (50% lethal concentration),UACC-62,> 100 µM
same,TGI,UACC-62,8.2 µM
same,GI50,UACC-257,935 nM
same,TGI,UACC-257,8.14 µM
same,CC50,UACC-257,> 100 µM
same,GI50,MDA-MB-435,26.6 nM
same,IC50,MDA-MB-435,27 nM
same,TGI,MDA-MB-435,91.4 nM
same,CC50,MDA-MB-435,> 100 µM
same,GI50,M14,430 nM
same,LC50 (concentration killing 50% of cells),M14,> 100 µM
same,TGI,M14,16 µM
same,GI50,SNB-75,212 nM
same,"LC50 (lethal concentration, 50% net cell kill)",SNB-75,> 100 µM
same,GI50,SF-268,668 nM
same,TGI,SF-268,> 100000 nM
same,CC50,SF-268,> 100 µM
same,growth at 10 µM,K562,1.22%
same,growth at 10 µM,CCRF-CEM [8],0.91%
